Settings in all cases: pH 10
Test [1] concerns the target T1, Carbonic anhydrase 1 (Homo sapiens, UniProt P00915). Nature of the test: Hydratase Activity Assay. As for the experimental part:
(§1) Carbonic anhydrase enzyme activity was assayed both with respect to its hydratase activity (i.e. hydration of CO2) and to its esterase activity (i.e. hydrolysis of an ester of p-nitrophenylacetate)

The target of test [2] is T2, Carbonic anhydrase 2 (Homo sapiens, UniProt P00918). In words: Hydratase Activity Assay. Here is the method: as §1
For test [3], the target named is T1, Carbonic anhydrase 1. In words: Esterase Activity Assay. As for the experimental part: as §1
Test [4] has as its target T2, Carbonic anhydrase 2. In words: Esterase Activity Assay. Here is the method:
as §1

Results on four compounds are retold here after BindingDB's records for doi:10.1080/14756360701404100 (Balikesir University Science & Art Faculty, 2008).

A word on the IC50: it is the concentration needed to halve the response being measured. Read a low IC50 as higher potency.

T1 sequence (P00915 whole entry): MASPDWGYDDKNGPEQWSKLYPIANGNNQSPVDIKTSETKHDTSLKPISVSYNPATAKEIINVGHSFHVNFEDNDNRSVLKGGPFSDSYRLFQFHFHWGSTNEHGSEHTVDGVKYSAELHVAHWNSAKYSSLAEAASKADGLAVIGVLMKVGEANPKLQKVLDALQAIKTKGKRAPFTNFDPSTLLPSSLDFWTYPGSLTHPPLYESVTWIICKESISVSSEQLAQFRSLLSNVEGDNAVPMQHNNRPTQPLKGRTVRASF

In the case of `O=c1oc2cc(O)c(O)cc2cc1-c1ccccc1` [DCP], the IC50 was found to be 124 µM on Carbonic anhydrase 1 [1], 61.7 µM on Carbonic anhydrase 2 [2], 160 µM against Carbonic anhydrase 1 [3] and 246 µM against Carbonic anhydrase 2 [4].
The like results for `Cc1cccc(-c2cc3cc(O)c(O)cc3oc2=O)c1` [MPC] were, in that order, 320 µM, 504 µM, 837 µM and 201 µM.
The like results for `Cc1ccccc1-c1cc2cc(O)c(O)cc2oc1=O` [OPC] were, in that order, 206 µM, 363 µM, 153 µM and 163 µM.
The like results for `Cc1ccc(-c2cc3cc(O)c(O)cc3oc2=O)cc1` [PPC] were, in that order, 272 µM, 561 µM, 256 µM and 127 µM.
